{"source": "the supplement of paper PMC10307832", "experiment_in_all_cases": "relative viability (nuclei count vs DMSO), 5 days (fraction); higher = more cells survive", "key": {"MK-2206 + Luminespib": {"compound": "NC1(c2ccc(-c3nc4ccn5c(=O)[nH]nc5c4cc3-c3ccccc3)cc2)CCC1 [MK-2206] + CCNC(=O)c1noc(-c2cc(C(C)C)c(O)cc2O)c1-c1ccc(CN2CCOCC2)cc1 [Luminespib] (partner 0.01 µM)", "how_it_was_run": "(§1)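 A single step with final 0.05% Triton X-100, 1% formaldehyde and 1 ug/ml Hoechst fixed the cells and stained nuclei 5 days after treatment. Lung cancer cell lines in 1536-well plates had been treated by pin tool the day after seeding with one drug alone or a fixed anchor-drug dose plus five library-drug doses (not always all listed) in √10 steps, and nuclei were counted on 4× images. Relative viability is the ratio of nuclei in treated wells to nuclei in vehicle wells, taken as the median of duplicate plates.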"}, "MK-2206 + Palbociclib": {"compound": "NC1(c2ccc(-c3nc4ccn5c(=O)[nH]nc5c4cc3-c3ccccc3)cc2)CCC1 [MK-2206] + CC(=O)c1c(C)c2cnc(Nc3ccc(N4CCNCC4)cn3)nc2n(C2CCCC2)c1=O [Palbociclib] (partner 0.5 µM)", "how_it_was_run": "as §1"}, "Pictilisib + Trametinib": {"compound": "CS(=O)(=O)N1CCN(Cc2cc3nc(-c4cccc5[nH]ncc45)nc(N4CCOCC4)c3s2)CC1 [Pictilisib] + CC(=O)Nc1cccc(-n2c(=O)n(C3CC3)c(=O)c3c(Nc4ccc(I)cc4F)n(C)c(=O)c(C)c32)c1 [Trametinib] (partner 0.02 µM)", "how_it_was_run": "as §1"}, "MK-2206 + Crizotinib": {"compound": "NC1(c2ccc(-c3nc4ccn5c(=O)[nH]nc5c4cc3-c3ccccc3)cc2)CCC1 [MK-2206] + C[C@@H](Oc1cc(-c2cnn(C3CCNCC3)c2)cnc1N)c1c(Cl)ccc(F)c1Cl [Crizotinib] (partner 1 µM)", "how_it_was_run": "as §1"}, "MK-2206 + Trametinib": {"compound": "NC1(c2ccc(-c3nc4ccn5c(=O)[nH]nc5c4cc3-c3ccccc3)cc2)CCC1 [MK-2206] + CC(=O)Nc1cccc(-n2c(=O)n(C3CC3)c(=O)c3c(Nc4ccc(I)cc4F)n(C)c(=O)c(C)c32)c1 [Trametinib] (partner 0.02 µM)", "how_it_was_run": "as §1"}}, "data": [{"cell line": "UMC-11", "values": [{"measurement": "relative viability", "setting": "MK-2206 + Luminespib; first compound 0.01 µM", "result": 1}, {"measurement": "relative viability", "setting": "MK-2206 + Luminespib; first compound 0.03162 µM", "result": 0.944}, {"measurement": "relative viability", "setting": "MK-2206 + Luminespib; first compound 0.3162 µM", "result": 1.12}, {"measurement": "relative viability", "setting": "MK-2206 + Luminespib; first compound 1 µM", "result": 1.1}, {"measurement": "relative viability", "setting": "MK-2206 + Palbociclib; first compound 0.01 µM", "result": 0.318}, {"measurement": "relative viability", "setting": "MK-2206 + Palbociclib; first compound 0.03162 µM", "result": 0.359}, {"measurement": "relative viability", "setting": "MK-2206 + Palbociclib; first compound 0.3162 µM", "result": 0.288}, {"measurement": "relative viability", "setting": "MK-2206 + Palbociclib; first compound 1 µM", "result": 0.317}, {"measurement": "relative viability", "setting": "Pictilisib + Trametinib; first compound 0.02 µM", "result": 0.671}, {"measurement": "relative viability", "setting": "Pictilisib + Trametinib; first compound 0.06325 µM", "result": 0.872}, {"measurement": "relative viability", "setting": "Pictilisib + Trametinib; first compound 0.6325 µM", "result": 0.735}, {"measurement": "relative viability", "setting": "Pictilisib + Trametinib; first compound 2 µM", "result": 0.674}, {"measurement": "relative viability", "setting": "MK-2206 + Crizotinib; first compound 0.01 µM", "result": 0.61}, {"measurement": "relative viability", "setting": "MK-2206 + Crizotinib; first compound 0.03162 µM", "result": 0.569}, {"measurement": "relative viability", "setting": "MK-2206 + Crizotinib; first compound 0.3162 µM", "result": 0.603}, {"measurement": "relative viability", "setting": "MK-2206 + Crizotinib; first compound 1 µM", "result": 0.707}, {"measurement": "relative viability", "setting": "MK-2206 + Trametinib; first compound 0.01 µM", "result": 0.594}, {"measurement": "relative viability", "setting": "MK-2206 + Trametinib; first compound 0.03162 µM", "result": 0.717}, {"measurement": "relative viability", "setting": "MK-2206 + Trametinib; first compound 0.3162 µM", "result": 0.772}, {"measurement": "relative viability", "setting": "MK-2206 + Trametinib; first compound 1 µM", "result": 0.966}]}]}
